Laboratory results taken from patent US9271993B2, “Treatment of bacterial infectious diseases” (priority 2010, dated 2016).
≈ marks a conversion by molar mass, not a printed value. Like-named read-outs stand apart in the source and are kept apart here.

Legend:
mitohybrid ribosomes = assay: Ribosomal drug susceptibility (MIC) of recombinant bacteria; set-up: MIC, mitohybrid ribosomes: unit not given beside the values; conditions: Table 7; 72 h incubation
[1] = system: clinical methicillin resistant Staphylococcus aureus (MRSA) isolates; assay: MIC against clinical MRSA isolates, LB microdilution assay
Method: Activity was assessed by determination of minimal inhibitory concentrations (MIC), as described in Pfister et al., Antimicrob. […] Cultures from single colonies were grown in LB medium and used for MIC tests in a microtiter plate format. Starting cultures contained 200 μl of bacterial cells at an optical density of 0.025 at 600 nm, and the respective drug was added in twofold series of dilution.

[2] = system: Cochlear explants from newborn mice; assay: Cochleatoxicity in vitro, hair cell loss in cochlear explants; type: cell-based
Method: FIG. 1: Cochleatoxicity in vitro
(a) Dose-response relationship of drug-induced hair cell loss in cochlear explants. Hair cell loss was quantified along the entire length of the explant and plotted against drug concentration. %=% outer hair cells missing.
Cochlear explants from newborn mice were treated with 0.5 mM aminoglycoside compound for 24 h; subsequently hair cell damage was assessed by epifluorescence microscopy.

[3] = General toxicity in guinea pigs; type: in vivo; conditions: systemic, once daily for 14 days, monitored additional 14 days
From the text: Guinea pigs received a systemic application of aminoglycosides once daily in the dosing indicated in Table 9 for 14 days and were then monitored for an additional 14 days.

cytohybrid ribosomes = assay: Ribosomal drug susceptibility (MIC) of recombinant bacteria; set-up: MIC, cytohybrid ribosomes: unit not given beside the values; conditions: Table 7; 72 h incubation
bacterial ribosomes = assay: as above; set-up: MIC, bacterial ribosomes: unit not given beside the values; conditions: Table 7; 72 h incubation
E. coli = assay: MIC against gram-negative bacteria; type: cell-based
From the text: Agents Chemother. 2003, 47:1496-1502.

M. bolletii = assay: MIC against non-tuberculous rapidly-growing mycobacteria, microdilution; type: cell-based; conditions: Mycobacteroides abscessus, read-out: minimal inhibitory concentration (MIC)
Method: (§1) Activity of apramycin was assessed in standard microdilution assays and is expressed as minimal inhibitory concentration (MIC) in μg/ml.

M. abscessus = assay: as above; type: cell-based; conditions: Mycobacteroides abscessus; strain 500039/08 M. abscessus; read-out: minimal inhibitory concentration (MIC)
Method: as §1

M. massiliense = assay: as above; type: cell-based; conditions: Mycobacteroides abscessus, read-out: minimal inhibitory concentration (MIC)
Method: as §1

M. kansasii = assay: Drug susceptibility of non-tuberculous slow-growing mycobacteria, MGIT960; type: cell-based
M. avium-intracellulare = assay: as above; type: cell-based
[4] = Staphylococcus aureus, MRSA, MRSA AG038, strain 70-26S Gm^S
[5] = Staphylococcus aureus, MRSA, MRSA AG040, strain 87-26S Gm^S
[6] = Staphylococcus aureus, MRSA, MRSA AG041, strain 98-25S Gm^S
[7] = Staphylococcus aureus, MRSA, MRSA AG042, strain 101-06R Gm^R
[8] = Staphylococcus aureus, MRSA, MRSA AG043, strain 01-08R Gm^R
[9] = Staphylococcus aureus, MRSA, MRSA AG044, strain 07-12R Gm^R
[10] = Staphylococcus aureus, MRSA, MRSA AG045, strain 08-12R Gm^R
[11] = Staphylococcus aureus, MRSA, MRSA AG053, strain 56-06R Gm^R
[12] = strain 177217/10 M. massiliense
[13] = strain 186139/07 M. massiliense
[14] = strain 500044/09 M. massiliense

Gentamicin
MIC, mitohybrid ribosomes (mitohybrid ribosomes): 128 | MIC ([1]; MRSA AG038, strain 70-26S Gm^S): 0.5 µg/mL | MIC ([1]; MRSA AG040, strain 87-26S Gm^S): 0.5 µg/mL | MIC ([1]; MRSA AG041, strain 98-25S Gm^S): 0.5 µg/mL | MIC ([1]; MRSA AG042, strain 101-06R Gm^R): 32 to 64 µg/mL | MIC ([1]; MRSA AG043, strain 01-08R Gm^R): 32 to 64 µg/mL | MIC ([1]; MRSA AG044, strain 07-12R Gm^R): 16 µg/mL | MIC ([1]; MRSA AG045, strain 08-12R Gm^R): 16 µg/mL | MIC ([1]; MRSA AG046, strain 12-06R Gm^R): ≧256 mg/l | MIC ([1]; MRSA AG047, strain 18-06R Gm^R): ≧256 mg/l | MIC ([1]; MRSA AG048, strain 20-06R Gm^R): ≧256 mg/l | MIC ([1]; MRSA AG049, strain 23-12R Gm^R): 16 µg/mL | MIC ([1]; MRSA AG050, strain 31-06R Gm^R): 128 µg/mL | MIC ([1]; MRSA AG051, strain 36-06R Gm^R): 128 µg/mL | MIC ([1]; MRSA AG052, strain 53-14I Gm^R): 16 to 32 µg/mL | MIC ([1]; MRSA AG053, strain 56-06R Gm^R): 64 µg/mL | Hair cell count ([2]; 0.5 mM aminoglycoside for 24 h, epifluorescence microscopy): almost all hair cells (inner and outer) missing | inner and outer hair cells missing / lost ([2]; 0.5 mM, FIG. 1): > 80% | observations (general toxicity) ([3]; 120 mg/kg base): normal weight gain | observations (general toxicity) ([3]; 140 mg/kg base): significant weight loss | observations (general toxicity) ([3]; 160 mg/kg base): 2 out of 3 died | MIC, cytohybrid ribosomes (cytohybrid ribosomes): 1024 | MIC, bacterial ribosomes (bacterial ribosomes): 1 | MIC (E. coli; E. coli AG01, clin. isol. (Gm^S)): 4 to 8 µg/mL | MIC (E. coli; E. coli AG02, clin. isol (Gm^S)): 2 µg/mL | MIC (E. coli; E. coli AG03, clin. isol (Gm^R)): 256 to 512 µg/mL | MIC (E. coli; E. coli AG06, BM13): 0.5 µg/mL | MIC (E. coli; E. coli AG08, BM13/pIP055, resistance mechanism ANT(2″)): 16 µg/mL | MIC (E. coli; E. coli AG09, AAC(6′)-1B, resistance mechanism AAC(6′)): 8 to 16 µg/mL | MIC (E. coli; E. coli AG36, HB101/pAT197, resistance mechanism ANT(4′)): 0.5 µg/mL | MIC (E. coli; E. coli AG37, HB101/pAG21-1, resistance mechanism APH(3′)): 0.25 µg/mL

NC[C@H]1O[C@H](O[C@H]2[C@H](O)[C@@H](O[C@H]3O[C@H](CO)[C@@H](O)[C@H](N)[C@H]3O)[C@H](N)C[C@@H]2N)[C@H](O)[C@@H](O)[C@@H]1O [Kanamicin A]
MIC ([1]; MRSA AG047, strain 18-06R Gm^R): >256 µg/mL | MIC ([1]; MRSA AG049, strain 23-12R Gm^R): >256 µg/mL | MIC ([1]; MRSA AG050, strain 31-06R Gm^R): >256 µg/mL | MIC ([1]; MRSA AG051, strain 36-06R Gm^R): >256 µg/mL | MIC ([1]; MRSA AG052, strain 53-14I Gm^R): >256 µg/mL | MIC ([1]; Staphylococcus aureus, MRSA): > 256 µg/mL | MIC [1, 4]: 4 µg/mL (≈ 8.26 µM) | MIC [1, 5]: 128 to 256 µg/mL (≈ 264 to 528 µM) | MIC [1, 6]: 2 to 4 µg/mL (≈ 4.13 to 8.26 µM) | MIC [1, 7]: 256 µg/mL (≈ 528 µM) | MIC [1, 8]: 128 to 256 µg/mL (≈ 264 to 528 µM) | MIC [1, 9]: 64 µg/mL (≈ 132 µM) | MIC [1, 10]: 64 µg/mL (≈ 132 µM) | MIC ([1]; Staphylococcus aureus, MRSA, MRSA AG048, strain 20-06R Gm^R): > 512 µg/mL | MIC [1, 11]: 256 µg/mL (≈ 528 µM) | MIC (M. bolletii; strain 179639/10 M. bolletii): 64 µg/mL (≈ 132 µM) | MIC (M. bolletii; strain 181739/08 M. bolletii): 64 µg/mL (≈ 132 µM) | MIC (M. bolletii; strain 183177/08 M. bolletii): 16 µg/mL (≈ 33 µM) | MIC (M. abscessus): 4 µg/mL (≈ 8.26 µM) | MIC (M. massiliense; [12]): 32 µg/mL (≈ 66 µM) | MIC (M. massiliense; [13]): 32 µg/mL (≈ 66 µM) | MIC (M. massiliense; [14]): 16 µg/mL (≈ 33 µM) | MIC (E. coli; Escherichia coli, E. coli AG01, clin. isol. (Gm^S), read-out: MIC): 16 µg/mL (≈ 33 µM) | MIC (E. coli; Escherichia coli, E. coli AG02, clin. isol (Gm^S), read-out: MIC): 4 to 8 µg/mL (≈ 8.26 to 16.5 µM) | MIC (E. coli; Escherichia coli, E. coli AG03, clin. isol (Gm^R), read-out: MIC): 16 to 32 µg/mL (≈ 33 to 66 µM) | MIC (E. coli; Escherichia coli, E. coli AG06, BM13, read-out: MIC): 1 to 2 µg/mL (≈ 2.06 to 4.13 µM) | MIC (E. coli; Escherichia coli, E. coli AG07, BM13/pIP135, resistance mechanism AAC(3), read-out: MIC): 8 µg/mL (≈ 16.5 µM) | MIC (E. coli; Escherichia coli, E. coli AG08, BM13/pIP055, resistance mechanism ANT(2″), read-out: MIC): 16 to 128 µg/mL (≈ 33 to 264 µM) | MIC (E. coli; Escherichia coli, E. coli AG09, AAC(6′)-1B, resistance mechanism AAC(6′), read-out: MIC): 256 to 512 µg/mL (≈ 528 to 1060 µM) | MIC (E. coli; Escherichia coli, E. coli AG36, HB101/pAT197, resistance mechanism ANT(4′), read-out: MIC): 16 to 32 µg/mL (≈ 33 to 66 µM) | MIC (E. coli; Escherichia coli, E. coli AG37, HB101/pAG21-1, resistance mechanism APH(3′), read-out: MIC): > 256 µg/mL

NCC[C@H](O)C(=O)N[C@@H]1C[C@H](N)[C@@H](O[C@H]2O[C@H](CN)[C@@H](O)[C@H](O)[C@H]2O)[C@H](O)[C@H]1O[C@H]1O[C@H](CO)[C@@H](O)[C@H](N)[C@H]1O [Amikacin]
MIC ([1]; MRSA AG048, strain 20-06R Gm^R): 256 µg/mL (≈ 437 µM) | MIC ([1]; Staphylococcus aureus, MRSA): 256 µg/mL (≈ 437 µM) | MIC [1, 4]: 4 µg/mL (≈ 6.83 µM) | MIC [1, 5]: 16 to 32 µg/mL (≈ 27.3 to 54.6 µM) | MIC [1, 6]: 4 to 8 µg/mL (≈ 6.83 to 13.7 µM) | MIC [1, 7]: 16 µg/mL (≈ 27.3 µM) | MIC [1, 8]: 8 to 16 µg/mL (≈ 13.7 to 27.3 µM) | MIC [1, 9]: 4 µg/mL (≈ 6.83 µM) | MIC [1, 10]: 4 µg/mL (≈ 6.83 µM) | MIC ([1]; Staphylococcus aureus, MRSA, MRSA AG046, strain 12-06R Gm^R): 32 µg/mL (≈ 54.6 µM) | MIC ([1]; Staphylococcus aureus, MRSA, MRSA AG049, strain 23-12R Gm^R): 8 to 16 µg/mL (≈ 13.7 to 27.3 µM) | MIC ([1]; Staphylococcus aureus, MRSA, MRSA AG050, strain 31-06R Gm^R): 16 µg/mL (≈ 27.3 µM) | MIC ([1]; Staphylococcus aureus, MRSA, MRSA AG051, strain 36-06R Gm^R): 8 to 16 µg/mL (≈ 13.7 to 27.3 µM) | MIC ([1]; Staphylococcus aureus, MRSA, MRSA AG052, strain 53-14I Gm^R): 16 µg/mL (≈ 27.3 µM) | MIC [1, 11]: 8 µg/mL (≈ 13.7 µM) | Activity (resistant/susceptible) (M. kansasii; strain 177227/06 M. kansasii, 1 μg/ml): R | Activity (resistant/susceptible) (M. kansasii; strain 177227/06 M. kansasii, 4 μg/ml): S | Activity (resistant/susceptible) (M. kansasii; strain 177227/06 M. kansasii, 10 μg/ml): S | Activity (resistant/susceptible) (M. kansasii; strain 180235/06 M. kansasii, 1 μg/ml): R | Activity (resistant/susceptible) (M. kansasii; strain 180235/06 M. kansasii, 4 μg/ml): S | Activity (resistant/susceptible) (M. kansasii; strain 180235/06 M. kansasii, 10 μg/ml): S | Activity (resistant/susceptible) (M. avium-intracellulare; strain 182034/06 M. avium-intracellulare, 1 μg/ml): R | Activity (resistant/susceptible) (M. avium-intracellulare; strain 182034/06 M. avium-intracellulare, 4 μg/ml): S | Activity (resistant/susceptible) (M. avium-intracellulare; strain 182034/06 M. avium-intracellulare, 10 μg/ml): S | Activity (resistant/susceptible) (M. avium-intracellulare; strain 182124/07 M. avium-intracellulare, 1 μg/ml): R | Activity (resistant/susceptible) (M. avium-intracellulare; strain 182124/07 M. avium-intracellulare, 4 μg/ml): S | Activity (resistant/susceptible) (M. avium-intracellulare; strain 182124/07 M. avium-intracellulare, 10 μg/ml): S | Activity (resistant/susceptible) (M. avium-intracellulare; strain 182550/07 M. avium-intracellulare, 1 μg/ml): R | Activity (resistant/susceptible) (M. avium-intracellulare; strain 182550/07 M. avium-intracellulare, 4 μg/ml): S | Activity (resistant/susceptible) (M. avium-intracellulare; strain 182550/07 M. avium-intracellulare, 10 μg/ml): S | MIC (M. bolletii; strain 179639/10 M. bolletii): 8 µg/mL (≈ 13.7 µM) | MIC (M. bolletii; strain 181739/08 M. bolletii): 4 µg/mL (≈ 6.83 µM) | MIC (M. bolletii; strain 183177/08 M. bolletii): 8 µg/mL (≈ 13.7 µM) | MIC (M. abscessus): 1 µg/mL (≈ 1.71 µM) | MIC (M. massiliense; [12]): 8 µg/mL (≈ 13.7 µM) | MIC (M. massiliense; [13]): 4 µg/mL (≈ 6.83 µM) | MIC (M. massiliense; [14]): 1 µg/mL (≈ 1.71 µM)
